One assay addresses T1R1/T1R3 (Homo sapiens) (UniProt Q7RTX0+Q7RTX1). Nature of the assay: Activation of human T1R1/T1R3. Type of assay: protein-complex assay.
In assay [1] the target is T1, Taste receptor type 2 member 105 (Mus musculus) (UniProt Q9JKT4).
T1 sequence (whole entry): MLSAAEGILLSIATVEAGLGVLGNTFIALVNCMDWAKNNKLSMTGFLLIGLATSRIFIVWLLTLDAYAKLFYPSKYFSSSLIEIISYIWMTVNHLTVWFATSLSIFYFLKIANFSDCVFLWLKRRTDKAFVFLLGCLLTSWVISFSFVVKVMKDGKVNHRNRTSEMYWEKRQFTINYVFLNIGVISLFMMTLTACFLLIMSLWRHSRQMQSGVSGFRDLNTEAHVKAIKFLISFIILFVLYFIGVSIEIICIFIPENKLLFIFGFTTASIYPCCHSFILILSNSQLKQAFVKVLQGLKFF
In words: Inhibition of mouse T2R5 expressed in HEK293 cells. It counts as cell-based.

Assay [2] addresses Muscarinic acetylcholine receptor (Homo sapiens) (UniProt P20309+P08173+P11229+P08172+P08912). Nature of the assay: Inhibition of mAChR (unknown origin) expressed in HEK293 cells. It counts as cell-based.

Activity calls are given as the source filed them. No cut-off for these calls is given here.

`OC[C@H]1O[C@@](CO)(O[C@H]2O[C@H](CO)[C@@H](O)[C@H](O)[C@H]2O)[C@@H](O)[C@@H]1O`: the result at T1R1/T1R3 (Homo sapiens) was inactive.

With `N[C@H](Cc1c[nH]c2ccccc12)C(=O)O`, at T1R1/T1R3 (Homo sapiens), the result was inactive.

As for `COc1ccc(OC(C)C(=O)O)cc1` (stereo not given), the inhibition result in assay [1] and in assay [2] was “inactive” each time.

Take `O=C1NS(=O)(=O)c2ccccc21`: the outcome at T1R1/T1R3 (Homo sapiens) was inactive.

(Values after ChEMBL document CHEMBL3714709, “T1R hetero-oligomeric taste receptors, cell lines that express said receptors, and taste compounds” (2008).)
